Reference: patent US7700584B2 (Hangzhou Minsheng Pharmaceuticals Co., Ltd., priority 2004, dated 2010)
In brackets after ≈: the same amount, converted by molar mass. Structures can show the parent of a compound that is named as a salt. Where two headings read alike, the source gives them in different places.

Legend:
[1] = test system: A-549 human lung adenocarcinoma; test: In vitro inhibition rate to tumor cells (MTT), A-549; format: cell-based; conditions: for inhibition rate, Results (%) A-549: 50 μg/ml, hydrochloride; for inhibition at 50 µg/mL: Homo sapiens, A549, 50 μg/ml, read-out: inhibition rate, Results (%) A-549
293 cells = test: Cell status of 293 cells treated with sample alone (herpes virus screening); conditions: 200 μg/ml, 24 hrs
[2] = test system: SMMC-7721 human hepatic carcinoma; test: In vitro inhibition rate to tumor cells (MTT), SMMC-7721; format: cell-based; conditions: for inhibition rate, Results (%) SMMC-7721: 50 μg/ml, hydrochloride; for inhibition at 50 µg/mL: Homo sapiens, SMMC-7721, 50 μg/ml, read-out: inhibition rate, Results (%) SMMC-7721
[3] = test system: HL-60 human promyelocytic leukemia; test: In vitro anti-tumor IC50 (MTT), HL-60; format: cell-based; conditions: Table 4
Method: (§1) (1) Single cell suspension was seeded into 96-well plates (the cells was diluted in the PRMI-1640 minimum medium to 3×10^4 cells/ml, […] diluted cells/well). […] The experiments were performed in quadruplicate.
(§2) (2) The medium was removed. Solutions of the anti-tumor agents (50 compounds) were prepared in a freshly prepared medium at serial concentrations. […] of the solution was added into each well. Incubation was continued for 48 hours.
(§3) (3) 20 ug of 2 mg/ml MTT was added into each well, and incubated for 4 hours.
(§4) (4) The medium was removed from the well. The microplates were swiftly turned down to throw-off the medium. […] of DMSO was added into each well, and vortexed at room temperature for 10 minutes.
(§5) (5) OD value (λ=570 nm) was measured with an Enzyme-Linked Detector.
(§6) (6) The graph of cell vitality was plotted, and IC50 was calculated.

[4] = biological target: T1, HIV-1 proteinase (HIV-1 PR) (Human immunodeficiency virus type 1 group M subtype B, UniProt P04585); test: Screening for in vitro activity against HIV-1 proteinase; format: biochemical
T1 construct: HIV-1 proteinase digests the fluorescent-labeled substrate; purchased
Procedure, shortened: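 Recombinant HIV-1 PR cleaves a fluorescent-labeled substrate in reaction buffer. Samples were dissolved in DMSO and serially diluted 5-fold in water (five dilutions), then added before the enzyme. Fluorescence of the product was read after incubation; indinavir was the positive control.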

[5] = biological target: T2, HIV-1 reverse transcriptase (Human immunodeficiency virus type 1 group M subtype B, UniProt P04585); test: Screening for the in vitro activity against the HIV-1 reverse transcriptase; format: biochemical
T2 construct: purchased
Method: Principle of the test: The template to which the HIV-1 reverse transcriptase interacts was covered onto the enzyme-lined template. In the optimal reaction conditions and system, HIV-1 RT will put the substrate comprising Biotin-dUTP onto the reaction template. The activity of the enzyme was measured as the amount of the integrating Biotin-dUTP in the reaction by using streptavidin-labeled horseradish peroxidase. Adding the sample to the reaction system can identify inhibitor of the enzyme.
1. HIV-1 RT: commercially available.
2. Treatment of the samples: Before use, the sample was dissolved in DMSO at a suitable concentration, then serially diluted (5×) with double distilled water, five serial dilutions per sample.
4. Methods: The diluted sample was added into the reaction buffer containing Biotin-dUTP and the genetic engineered target enzyme, and incubated in the optimal reaction conditions. A streptavidin-labeled horseradish peroxidase was added to visual the system, and OD450 was measured.

[6] = test system: Bel-7402 human hepatic carcinoma; test: In vitro inhibition rate to tumor cells (MTT), Bel-7402; format: cell-based; conditions: for inhibition rate, Results (%) Bel-7402: 50 μg/ml, hydrochloride; for inhibition at 50 µg/mL: Homo sapiens, Bel-7402, 50 μg/ml, read-out: inhibition rate, Results (%) Bel-7402
[7] = test system: HL-60 human promyelocytic leukemia; test: In vitro inhibition rate to tumor cells (MTT), HL-60; format: cell-based; conditions: for inhibition rate, Results (%) HL-60: 50 μg/ml, hydrochloride; for inhibition at 50 µg/mL: Homo sapiens, HL-60, 50 μg/ml, read-out: inhibition rate, Results (%) HL-60
[8] = test system: Hela human cervical carcinoma; test: In vitro anti-tumor IC50 (MTT), Hela; format: cell-based; conditions: Table 4
[9] = test system: MCF-7 human mammary adenocarcinoma; test: In vitro anti-tumor IC50 (MTT), MCF-7; format: cell-based; conditions: Table 4
Method: as §1, §2, §3, §4, §5, §6

[10] = test system: U-937 human histocytic lymphoma; test: In vitro anti-tumor IC50 (MTT), U-937; format: cell-based; conditions: Table 4
Method: as §1, §2, §3, §4, §5, §6

[11] = test system: U-937 human histocytic lymphoma; test: In vitro inhibition rate to tumor cells (MTT), U-937; format: cell-based; conditions: for inhibition rate, Results (%) U-937: 50 μg/ml, hydrochloride; for inhibition at 50 µg/mL: Homo sapiens, U-937, 50 μg/ml, read-out: inhibition rate, Results (%) U-937
[12] = test system: LLC mouse Lewis lung carcinoma; test: In vitro inhibition rate to tumor cells (MTT), LLC; format: cell-based; conditions: 50 μg/ml
[13] = test system: Hela human cervical carcinoma; test: In vitro inhibition rate to tumor cells (MTT), Hela; format: cell-based; conditions: 50 μg/ml; for inhibition rate, Results (%) Hela: hydrochloride; for inhibition at 50 µg/mL: Homo sapiens, HeLa, read-out: inhibition rate, Results (%) Hela

## CC(C)C1CC23OC1(O)C/C(=C\Nc1ccc(O)cc1)C2CCC3C (centres unmarked) [Compound 6, Curcumol p-hydroxy aniline hydrochloride]
[1]; Table 1
  inhibition rate, Results (%) A-549: 91.84%
[1]; Table 2 (repeated screening)
  inhibition rate, Results (%) A-549: 92.84%
[1]; Table 3 (repeated screening)
  inhibition at 50 µg/mL: 90.1%
293 cells
  Cytopathy and cell status, Sample: Good
[2]; Table 1
  inhibition rate, Results (%) SMMC-7721: 86.12%
[2]; Table 2 (repeated screening)
  inhibition rate, Results (%) SMMC-7721: 86.12%
[2]; Table 3 (repeated screening)
  inhibition at 50 µg/mL: 87.1%
[3]; hydrochloride
  IC50 (ug/ml) against tumor cell lines, HL-60: 0.51 µg/mL
[4]; 0.08 μg/ml, hydrochloride
  Inhibition rate: 0.89
[4]; 0.40 μg/ml, hydrochloride
  Inhibition rate: 1.7
[4]; 2.0 μg/ml, hydrochloride
  Inhibition rate: 2.99
[4]; 10 μg/ml, hydrochloride
  Inhibition rate: 13.15
[4]; 50 μg/ml, hydrochloride
  Inhibition rate: 7.07
[4]; five 5× serial dilutions from 50 μg/ml
  IC50: > 146 µM
[5]; initial concentration 200 μg/ml
  IC50: > 582 µM
[6]; Table 1
  inhibition rate, Results (%) Bel-7402: 81.84%
[6]; Table 2 (repeated screening)
  inhibition rate, Results (%) Bel-7402: 81.84%
[6]; Table 3 (repeated screening)
  inhibition at 50 µg/mL: 83.6%
[7]; Table 1
  inhibition rate, Results (%) HL-60: 93.21%
[7]; Table 2 (repeated screening)
  inhibition rate, Results (%) HL-60: 93.21%
[7]; Table 3 (repeated screening)
  inhibition at 50 µg/mL: 95.5%
[8]; hydrochloride
  IC50 (ug/ml) against tumor cell lines, Hela: 0.35 µg/mL
[9]; hydrochloride
  IC50 (ug/ml) against tumor cell lines, MCF: 1.10 µg/mL
[10]; hydrochloride
  IC50 (ug/ml) against tumor cell lines, U-937: 0.56 µg/mL
[11]; Table 1
  inhibition rate, Results (%) U-937: 90.92%
[11]; Table 2 (repeated screening)
  inhibition rate, Results (%) U-937: 94.12%
[11]; Table 3 (repeated screening)
  inhibition at 50 µg/mL: 94.1%
[12]; Table 1, hydrochloride
  inhibition rate, Results (%) LLC: 88.23%
[12]; Table 2 (repeated screening), hydrochloride
  inhibition rate, Results (%) LLC: 87.02%
[12]; Mus musculus, Lewis lung carcinoma, Table 3 (repeated screening)
  inhibition at 50 µg/mL: 85%
[13]; Table 1
  inhibition rate, Results (%) Hela: 95.26%
[13]; Table 2 (repeated screening)
  inhibition rate, Results (%) Hela: 95.26%
[13]; Table 3 (repeated screening)
  inhibition at 50 µg/mL: 92.3%

## CC(C)C1CC23OC1(O)CC(=CN1CCNCC1)C2CCC3C (centres unmarked) [Compound 7, Curcumol piperazine]
[1]; Table 1
  inhibition at 50 µg/mL: 65.3%
[1]; Table 2 (repeated screening)
  inhibition at 50 µg/mL: 67.2%
[1]; Table 3 (repeated screening)
  inhibition at 50 µg/mL: 65.3%
293 cells
  Cytopathy and cell status, Sample: Good
[2]; Table 1
  inhibition at 50 µg/mL: 3.34%
[2]; Table 2 (repeated screening)
  inhibition at 50 µg/mL: 1.23%
[3]; Homo sapiens, HL-60, read-out: IC50 (ug/ml) against tumor cell lines, HL-60
  IC50: 1.61 µg/mL (≈ 5.02 µM)
[4]; 0.08 μg/ml, read-out: Inhibition rate
  inhibition at 0.08 µg/mL: 14.1%
[4]; 0.40 μg/ml
  Inhibition rate: 6.32
[4]; 2.0 μg/ml, read-out: Inhibition rate
  inhibition at 2 µg/mL: 4.31%
[4]; 10 μg/ml
  Inhibition rate: 3.51
[4]; IC50, five 5× serial dilutions from 50 μg/ml
  IC50: > 156 µM
[4]; read-out: Inhibition rate, 50 μg/ml
  inhibition at 50 µg/mL: 1.43%
[5]; IC50, initial concentration 200 μg/ml
  IC50: > 624 µM
[6]; Table 1
  inhibition at 50 µg/mL: 55.4%
[6]; Table 2 (repeated screening)
  inhibition at 50 µg/mL: 60.2%
[6]; Table 3 (repeated screening)
  inhibition at 50 µg/mL: 65.2%
[7]; Table 1
  inhibition at 50 µg/mL: 90.6%
[7]; Table 2 (repeated screening)
  inhibition at 50 µg/mL: 91%
[7]; Table 3 (repeated screening)
  inhibition at 50 µg/mL: 90.2%
[8]; Homo sapiens, HeLa, read-out: IC50 (ug/ml) against tumor cell lines, Hela
  IC50: 0.6 µg/mL (≈ 1.87 µM)
[9]; Homo sapiens, MCF7, read-out: IC50 (ug/ml) against tumor cell lines, MCF
  IC50: 3.2 µg/mL (≈ 9.99 µM)
[10]; Homo sapiens, U-937, read-out: IC50 (ug/ml) against tumor cell lines, U-937
  IC50: 0.76 µg/mL (≈ 2.37 µM)
[11]; Table 1
  inhibition at 50 µg/mL: 93%
[11]; Table 2 (repeated screening)
  inhibition at 50 µg/mL: 90%
[11]; Table 3 (repeated screening)
  inhibition at 50 µg/mL: 91.2%
[12]; Table 1
  inhibition rate, Results (%) LLC: 85.42%
[12]; Table 2 (repeated screening)
  inhibition rate, Results (%) LLC: −2.99%
[12]; Table 3 (repeated screening)
  inhibition rate, Results (%) LLC: −3.66%
[13]; Table 1
  inhibition at 50 µg/mL: 90.4%
[13]; Table 2 (repeated screening)
  inhibition at 50 µg/mL: 89.3%
[13]; Table 3 (repeated screening)
  inhibition at 50 µg/mL: 89.1%
